In patent US20070128217A1 (priority 2003, published 2007):

Columns and labels:
[1] = system: antibodies in sera from SARS patients (sera 1a, 1b, 2, 6, 37, 62, London, SARS-yellow, SARS-green); format: binding, human; parameters: Binding of serum 6 to linear peptides of protein X1 of SARS-CoV Urbani / Binding of serum 37 to linear peptides of protein X1 of SARS-CoV Urbani / Binding of serum 6 to looped/cyclic peptide (PEPSCAN-ELISA) / Binding of serum 37 to looped/cyclic peptide (PEPSCAN-ELISA) / Binding of serum 37 to looped/cyclic peptides of protein X1 of SARS-CoV Urbani / Binding of serum 6 to linear peptides of protein X2 / Binding of serum 37 to linear peptides of protein X2 / Binding of serum 37 to looped/cyclic peptides of protein X2 of SARS-CoV Urbani / Binding of serum 6 to linear peptides of protein M of SARS-CoV Urbani / Binding of serum 37 to linear peptides of protein M of SARS-CoV Urbani / Binding of serum 6 to looped/cyclic peptides of protein M of SARS-CoV Urbani / Binding of serum 37 to looped/cyclic peptides of protein M of SARS-CoV Urbani / Binding of serum 6 to linear peptides of protein X3 of SARS-CoV Urbani / Binding of serum 37 to linear peptides of protein X3 of SARS-CoV Urbani / Binding of serum 37 to looped/cyclic peptides of protein X3 of SARS-CoV Urbani / Binding of serum 6 to linear peptides of protein X4 of SARS-CoV Urbani / Binding of serum 37 to linear peptides of protein X4 of SARS-CoV Urbani / Binding of serum 37 to looped/cyclic peptides of protein X4 of SARS-CoV Urbani / Binding of serum 6 to linear peptides of protein X5 of SARS-CoV Urbani / Binding of serum 37 to linear peptides of protein X5 of SARS-CoV Urbani / Binding of serum 37 to looped/cyclic peptides of protein X5 of SARS-CoV Urbani / Binding of serum 6 to linear peptides of protein N of SARS-CoV Urbani / Binding of serum 37 to linear peptides of protein N of SARS-CoV Urbani / Binding of serum 6 to linear peptide (PEPSCAN-ELISA) / Binding of serum 1a to looped/cyclic peptides of protein N of SARS-CoV Urbani / Binding of serum 1b to looped/cyclic peptides of protein N of SARS-CoV Urbani / Binding of serum 2 to looped/cyclic peptides of protein N of SARS-CoV Urbani / Binding of serum 6 to looped/cyclic peptides of protein N of SARS-CoV Urbani / Binding of serum 37 to looped/cyclic peptides of protein N of SARS-CoV Urbani / Binding of serum 62 to looped/cyclic peptides of protein N of SARS-CoV Urbani / Binding of serum London to looped/cyclic peptides of protein N of SARS-CoV Urbani / Binding of serum SARS-green to looped/cyclic peptides of protein N of SARS-CoV Urbani: unit not given here
[2] = system: control sera (pooled serum of ten healthy LUMC hospital workers; commercial negative donor pooled serum from the Dutch bloodbank); format: binding, human; parameters: Binding of Control serum LUMC to linear peptides / Binding of Control serum Blood-bank to linear peptides / Binding of Control serum LUMC to looped peptides / Binding of Control Serum Blood-Bank to Looped peptides / Binding of Control serum LUMC to linear peptides of the protein M of SARS-CoV Urbani / Binding of Control serum Blood-bank to linear peptides of the protein M of SARS-CoV Urbani / Binding of Control serum LUMC to looped peptides of the protein M of SARS-CoV Urbani / Binding of Control Serum Blood-Bank to Looped peptides of the protein M of SARS-CoV Urbani: unit not given here
[3] = system: rabbit serum obtained by immunizing a rabbit with the SARS-CoV strain Frankfurt 1; format: binding; parameters: Binding of a rabbit serum to linear peptides / Binding of a rabbit serum to looped peptides / Rabbit serum linear peptides / Rabbit serum looped peptides / Binding of a rabbit serum to linear peptides of protein N of SARS-CoV Urbani (Rabbit serum linear peptides) / Binding of a rabbit serum to looped/cyclic peptides of protein N of SARS-CoV Urbani (Rabbit serum looped peptides): unit not given here
[4] = system: recombinant human anti-SARS-CoV antibody 03-018; format: binding; parameters: Binding of antibody 03-018 to linear peptides of the N protein of SARS-CoV Urbani / Binding of antibody 03-018 to looped/cyclic peptides of the N protein of SARS-CoV Urbani: unit not given here

Sequence	Binding of serum 1a to linear peptides of protein N of SARS-CoV Urbani [1]	Binding of serum 1b to linear peptides of protein N of SARS-CoV Urbani [1]	Binding of serum 2 to linear peptides of protein N of SARS-CoV Urbani [1]	Binding of serum 6 to linear peptides of protein N of SARS-CoV Urbani [1]	Binding of serum 37 to linear peptides of protein N of SARS-CoV Urbani [1]	Binding of serum 62 to linear peptides of protein N of SARS-CoV Urbani [1]	Binding of serum London to linear peptides of protein N of SARS-CoV Urbani [1]	Binding of serum SARS-green to linear peptides of protein N of SARS-CoV Urbani [1]	Binding of serum SARS-yellow to linear peptides of protein N of SARS-CoV Urbani [1]	Binding of serum 1a to looped/cyclic peptides of protein N of SARS-CoV Urbani [1]	Binding of serum 1b to looped/cyclic peptides of protein N of SARS-CoV Urbani [1]	Binding of serum 2 to looped/cyclic peptides of protein N of SARS-CoV Urbani [1]	Binding of serum 6 to looped/cyclic peptides of protein N of SARS-CoV Urbani [1]	Binding of serum 37 to looped/cyclic peptides of protein N of SARS-CoV Urbani [1]	Binding of serum 62 to looped/cyclic peptides of protein N of SARS-CoV Urbani [1]	Binding of serum London to looped/cyclic peptides of protein N of SARS-CoV Urbani [1]	Binding of serum SARS-green to looped/cyclic peptides of protein N of SARS-CoV Urbani [1]	Binding of serum SARS-yellow to looped/cyclic peptides of protein N of SARS-CoV Urbani [1]	Binding of Control Serum Blood-Bank to Looped peptides [2]	Binding of Control serum Blood-bank to linear peptides [2]	also measured
QRQKKQPTVTLLPAA	0.3	0.1	0.3	0.2	0.7	0.8	0.6	0.7	0.6												Recognition of the peptide by sera of SARS-CoV infected individuals, and form (linear, looped/cyclic) in which it is recognized [1]: recognized in looped/cyclic form; Control Serum Blood-Bank Looped peptides [2]: 1.1; Control serum Blood-bank linear peptides [2]: 0.8; Control serum LUMC linear peptides [2]: 0.7; Control serum LUMC looped peptides [2]: 0.8; Binding of a rabbit serum to linear peptides of protein N of SARS-CoV Urbani (Rabbit serum linear peptides) [3]: 0.2; Binding of a rabbit serum to looped/cyclic peptides of protein N of SARS-CoV Urbani (Rabbit serum looped peptides) [3]: 0.7; Binding of antibody 03-018 to linear peptides of the N protein of SARS-CoV Urbani [4]: 0.1; Binding of antibody 03-018 to looped/cyclic peptides of the N protein of SARS-CoV Urbani [4]: 0.3
QRSAPRITFGGPTDS	0.2	0.1	0.1	0.1	0.6	0.6	0.5	0.2	0.5	0.4	0.3	0.4	0.4	0.7	0.5	0.9	0.4	0.6	0.7	0.6	Binding of Control serum LUMC to linear peptides [2]: 0.5; Binding of Control serum LUMC to looped peptides [2]: 0.7; Binding of a rabbit serum to linear peptides of protein N of SARS-CoV Urbani (Rabbit serum linear peptides) [3]: 0.3; Binding of a rabbit serum to looped/cyclic peptides of protein N of SARS-CoV Urbani (Rabbit serum looped peptides) [3]: 1.2; Recognition of the peptide by antibody 03-018 [4]: recognized
QSNQRSAPRITFGGP	0.2	0.1	0.2	0.1	0.7	0.7	0.4	0.5	0.5	0.5	0.3	0.6	0.4	0.8	0.7	0.5	0.5	0.7	0.7	0.6	Binding of Control serum LUMC to linear peptides [2]: 0.5; Binding of Control serum LUMC to looped peptides [2]: 0.9; Recognition of the peptide by the rabbit serum [3]: also recognized; Recognition of the peptide by antibody 03-018 [4]: recognized
QYNVTQAFGRRGPEQ										0.4	0.2	0.4	0.4	0.7	0.6	0.5	0.4	0.5	0.8	0.7	Binding of serum 1a to linear peptide (PEPSCAN-ELISA) [1]: 0.3; Binding of serum 1b to linear peptide (PEPSCAN-ELISA) [1]: 0.1; Binding of serum 2 to linear peptide (PEPSCAN-ELISA) [1]: 0.1; Binding of serum 6 to linear peptide (PEPSCAN-ELISA) [1]: 0.2; Binding of serum 37 to linear peptide (PEPSCAN-ELISA) [1]: 0.6; Binding of serum 62 to linear peptide (PEPSCAN-ELISA) [1]: 0.6; Binding of serum London to linear peptide (PEPSCAN-ELISA) [1]: 0.4; Binding of serum SARS-green to linear peptide (PEPSCAN-ELISA) [1]: 0.5; Binding of serum SARS-yellow to linear peptide (PEPSCAN-ELISA) [1]: 0.6; Binding of Control serum LUMC to linear peptides [2]: 0.6; Binding of Control serum LUMC to looped peptides [2]: 0.8; Recognition of the peptide by the rabbit serum [3]: recognized; Binding of antibody 03-018 to linear peptides of the N protein of SARS-CoV Urbani [4]: 0.1; Binding of antibody 03-018 to looped/cyclic peptides of the N protein of SARS-CoV Urbani [4]: 0.3
